# Source: patent US20150315211A1, “SMALL MOLECULES FOR THE MODULATION OF MCL-1 AND METHODS OF MODULATING CELL DEATH, CELL DIVISION, CELL DIFFERENTIATION AND METHODS OF TREATING DISORDERS” (priority 2010, published 2015)
# Read-outs that look alike come from different tables or passages of the source.
# How the values were obtained:
# MCL-1ΔNΔC [1] = experiment: High-throughput competitive FP binding screen, FITC-MCL-1 SAHB/MCL-1ΔNΔC interaction
# BCL-XLΔC = BCL-XLΔC (Homo sapiens, UniProt Q07817); experiment: High-throughput competitive FP binding screen, FITC-BAD BH3/BCL-XLΔC interaction
# BCL-XLΔC, sequence (Q07817 1-212 limits assumed, stated change not applied): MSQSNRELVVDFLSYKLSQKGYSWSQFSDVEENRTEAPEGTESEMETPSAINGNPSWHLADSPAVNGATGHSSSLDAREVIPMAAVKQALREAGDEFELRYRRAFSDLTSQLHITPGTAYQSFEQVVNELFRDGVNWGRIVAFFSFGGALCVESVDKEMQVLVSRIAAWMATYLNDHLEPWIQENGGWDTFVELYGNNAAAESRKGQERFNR
# MCL-1ΔNΔC [2] = molecular target: MCL-1ΔNΔC (Homo sapiens, UniProt Q07820); experiment: High-throughput competitive FP binding screen, FITC-MCL-1 SAHB/MCL-1ΔNΔC interaction; design: the C-terminal alpha-helix was deleted from each of these constructs; GST (N, cleaved yes); made in house
# MCL-1ΔNΔC (Homo sapiens, UniProt Q07820), sequence (Q07820 172-320 limits assumed, stated change not applied): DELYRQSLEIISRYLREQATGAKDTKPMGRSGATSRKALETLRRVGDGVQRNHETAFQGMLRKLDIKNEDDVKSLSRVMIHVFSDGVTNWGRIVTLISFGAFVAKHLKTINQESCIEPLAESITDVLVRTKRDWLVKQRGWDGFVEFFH
# [3] = selectivity for MCL-1ΔNΔC over BCL-XLΔC targeting (BCL-XL % Bound minus MCL-1 % Bound)
# [4] = FITC-BAD BH3/BCL-XLΔC interaction pair, competitive FP screen
# [5] = FITC-MCL-1 SAHB/MCL-1ΔNΔC interaction pair, competitive FP screen
SMILES,Spec Values (MCL-1ΔNΔC [1]; [3]),BCL-XL % Bound (BCL-XLΔC; [4]) [%],MCL-1% Bound (MCL-1ΔNΔC [2]; [5]) [%],Spec Values (MCL-1ΔNΔC [1]),BCL-XL % Bound (BCL-XLΔC) [%],MCL-1% Bound (MCL-1ΔNΔC [2]) [%]
O=C(O)c1cccc(-c2ccc(/C=C3\Sc4ccccc4C3=O)o2)c1,64.25,95.42,31.17,,,
CN1CCN(C(c2ccccn2)c2c(-c3ccccc3)n(O)c3ccccc23)CC1 (stereo not drawn),49.28,99.83,50.55,,,
Cc1c(Cl)cccc1N1C(=O)CC(N2CCCc3ccccc32)C1=O (stereo not drawn),48.92,84.74,35.82,,,
CC(C)(C)c1ccc(-c2nnc(S)[nH]2)cc1,48.83,96.8,47.97,,,
Cc1oc(-c2cccc(C(F)(F)F)c2)cc1C(=O)O,48.68,81.9,33.22,,,
COc1cc(C(c2nnnn2C2CCCCC2)N2CCc3ccccc3C2)ccc1O (stereo not drawn),48.33,105.8,57.44,,,
CNc1sc(C(=O)c2cccs2)c(N)c1-c1nc2ccccc2s1,48.22,92.47,44.25,,,
CCCCn1c2ccccc2c2nnc(S)nc21,48.16,92.39,44.24,,,
CC1=CC(=O)C(CCCC2=CC(=O)C=CC2=O)=CC1=O,48.07,92.47,44.41,,,
c1ccc(-c2ccc3c(c2)c2c4n3CCN=C4CCC2)cc1,47.9,68.24,20.34,,,
O=C(NCc1ccco1)c1ccc(-c2cc3ccccc3oc2=O)cc1,47.79,115.7,67.95,,,
NNCc1c(Cl)cccc1Cl,47.77,103.5,55.76,,,
COC(=O)c1ccc(C(c2cc3c(cc2O)OCO3)N2CCN(c3ccccc3)CC2)cc1 (stereo not drawn),47.71,96.46,48.75,,,
CCOC(=O)c1c(N2C(=O)C3C4C=CC(O4)C3C2=O)sc2c1CCCC2 (stereo not drawn),47.7,95.97,48.27,,,
CC1=NN(c2ccccc2)C(=O)/C1=C/c1ccc(OC(=O)c2ccco2)c(Cl)c1,47.67,96.2,48.53,,,
CC1(C)CC(=O)C(=Cc2cn(-c3ccccc3)nc2-c2cccs2)C(=O)C1,47.55,90.62,43.07,,,
CCOc1cccc(CNc2ccc(N3CCCC3)cc2)c1,47.31,82.24,34.93,,,
COC(=O)c1c(NC(=O)C2CC2)sc(C)c1C,47.29,101,53.71,,,
Oc1ccc(/C=N/c2cccc(C(F)(F)F)c2)c(O)c1,47.26,75.68,28.42,,,
COC(=O)C1C(=O)NC(S)=C(C#N)C1c1ccccc1Cl (stereo not drawn),47.12,94.15,47.02,,,
Cn1c(S)nnc1CNc1cccc(C(F)(F)F)c1,47.12,102.2,55.09,,,
C=CCN1C(=O)/C(=C2/C(=O)Nc3ccccc32)c2ccccc21,47.06,77.55,30.48,,,
O=C(CSc1nnc(C2CC2)n1Cc1ccco1)c1cccc(Cl)c1,47.06,98.2,51.14,,,

SMILES,Spec Values (MCL-1ΔNΔC [1]; [3]),BCL-XL % Bound (BCL-XLΔC; [4]) [%],MCL-1% Bound (MCL-1ΔNΔC [2]; [5]) [%],Spec Values (MCL-1ΔNΔC [1]),BCL-XL % Bound (BCL-XLΔC) [%],MCL-1% Bound (MCL-1ΔNΔC [2]) [%]
O=S(=O)(NNc1cnc2ccccc2n1)c1ccccc1C(F)(F)F,47.02,112.4,65.42,,,
CC1(C)CC(=O)C2=C(C1)Nc1ccc3ncccc3c1C2c1ccc(O)c(O)c1 (stereo not drawn),47.01,95.33,48.32,,,
N#C/C(=C/c1ccc(-c2ccc(C(=O)O)cc2)o1)c1ccc(Cl)cc1,46.64,82.47,35.83,,,
O=C(NC(=S)NCc1ccccc1)C1CCCC1,46.46,92.1,45.64,,,
CNC(=S)N/N=C1\CCOc2ccc3ccccc3c21,46.39,96.07,49.68,,,
CC1CCc2c(sc3ncn4c(S)nnc4c23)C1 (stereo not drawn),46.37,95.03,48.65,,,
Oc1ccc(SSc2ccc(O)cc2)cc1,46.28,104.4,58.12,,,
O=C(O)/C(S)=C\C=C\c1ccccc1,46.13,90.49,44.36,,,
CC1(C)c2ssc(=S)c2-c2ccccc2N1C(=O)CSC#N,46.04,93.06,47.02,,,
CN1CCC(N(C)Cc2cc(C(C)(C)C)c(O)c(C(C)(C)C)c2)CC1,45.97,109.3,63.36,,,
O=C1c2ccccc2-c2onc3ccc(Oc4c(F)c(F)c(F)c(F)c4F)c1c23,45.97,86.73,40.76,,,
O=C1c2ccccc2CCC1Sc1nnc(-c2ccncc2)o1 (stereo not drawn),45.54,88.38,42.84,,,
N=C1NC(=O)/C(=C2/C(=O)Nc3ccc(Br)cc32)S1,45.52,95.58,50.06,,,
CCCCCSc1nnc(N/C=N/O)s1,45.49,98.25,52.76,,,
CCN(CC)c1ccc(C2C(C#N)=C(N)N(c3cccc(C)c3)C3=C2C(=O)CCC3)cc1 (stereo not drawn),45.46,98.46,53.01,,,
Oc1ccc(C2Oc3ccccc3C3CC(c4ccccc4O)=NN32)cc1 (stereo not drawn),45.43,93.42,47.99,,,
COC(=O)c1c(N)sc2c1Cc1ccccc1C2,45.24,92.93,47.69,,,
CC(C)CSC1=NSC2=NC(=O)/C(=C\c3ccc(SCc4ccco4)o3)C(=N)N12,45.2,82.8,37.61,,,
Cc1ccnc(NC(c2ccco2)c2c(C)[nH]c3ccccc23)c1 (stereo not drawn),45.19,94.99,49.8,,,
Cc1c(Cl)cccc1N1C(=O)CC(Sc2nnnn2-c2ccccc2)C1=O (stereo not drawn),45.07,97.5,52.43,,,
"O=c1cc(-c2ccccc2)oc2cc(O)c(O)c(O)c12 [Baicailen, reference compound]",93.84,104.2,10.32,,,
"CC1=C(O)C(=O)C=C2C1=CC=C1[C@@]2(C)CC[C@@]2(C)[C@@H]3C[C@](C)(C(=O)O)CC[C@]3(C)CC[C@]12C [Celastrol, reference compound]",,,,64.19,97.09,32.9
